Results on 24 compounds are retold here after patent US20250195530A1, “POLQ INHIBITORS” (ASTRAZENECA AB, priority 2022, published 2025).

The test system of one assay is DLD-1 BRCA2−/− cells. Briefly: Homologous recombination synthetic lethal inhibition of proliferation, DLD-1 BRCA2-/- (Cell Titre Glo 3D). Type of assay: cell-based. As to conditions: Homo sapiens. Put shortly: (§1)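 Cells are seeded in RPMI 1640 (phenol red free, 10% FBS, GlutaMAX) onto pre-dosed compound (10 μM to 0.51 nM, three-fold). Plates are incubated at 37 °C, and medium plus compound are refreshed on day 6. Viability is read by CellTiter-Glo 3D at day 7 (DLD-1) or day 12 (DLD-1 BRCA2−/−), and the IC50 is fitted.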

A further assay concerns DLD-1 cells. As to the kind of experiment: Inhibition of proliferation, DLD-1 BRCA2 wt control (Cell Titre Glo 3D). Type of assay: cell-based. As to conditions: Homo sapiens. Put shortly: as §1
Where [1] appears, read: DLD-1, first proliferation column (c5), DLD-1 BRCA2-/-, read-out: POLQ PD Prolif Lumin (converted).
Setting [2] is: DLD-1, second proliferation column (c6), DLD-1 BRCA2 wt control, read-out: POLQ PD Prolif Lumin (converted).
The mark [3] stands for this setting: DLD-1, proliferation, luminescence, taken as DLD-1 BRCA2-/-, read-out: POLQ PD Prolif Lumin (converted).
Setting [4] is: DLD-1, proliferation, luminescence, second Prolif column (c6), taken as DLD-1 BRCA2 wt control, read-out: POLQ PD Prolif Lumin (converted).
The mark [5] stands for this setting: DLD-1, 288 h, DLD-1 BRCA2−/− cells, 12 days, read-out: POLQ PD Prolif Lumin BRCA2 −/− mean pIC50 (converted).
Where [6] appears, read: DLD-1, 168 h, DLD-1 BRCA2 wt cells, 7 days, read-out: POLQ PD Prolif Lumin DLD1 mean pIC50 (converted).
[7] abbreviates: DLD-1, first proliferation column (c5), taken as DLD-1 BRCA2-/-, read-out: POLQ PD Prolif Lumin (converted).
[8] abbreviates: DLD-1, second proliferation column (c6), taken as DLD-1 BRCA2 wt, read-out: POLQ PD Prolif Lumin (converted).
Where [9] appears, read: DLD-1, DLD-1 BRCA2-/- proliferation, column head only partly shown, read-out: POLQ PD Prolif Lumin (converted).
The mark [10] stands for this setting: DLD-1, DLD-1 BRCA2 wt control proliferation, column head only partly shown, read-out: POLQ PD Prolif Lumin (converted).

Where two headings read alike, the source gives them in different places.

With `CNCCCOc1ccc(-c2nc3c(OC4(C)CC4)ncnc3n2Cc2cc(Cl)ccn2)c(Cl)c1` [Example T134, 3-(3-chloro-4-(9-((4-chloropyridin-2-yl)methyl)-6-(1-methylcyclopropoxy)-9H-purin-8-yl)phenoxy)-N-methylpropan-1-amine], the IC50 with DLD-1 BRCA2−/− cells (setting [1]) was 126 nM; with DLD-1 cells (setting [2]), > 10000 nM.

As to `C[C@H](CCOc1ccc(-c2nc3c(OC4(C)CC4)ncnc3n2Cc2cccc(C#N)c2)c(Cl)c1)C(=O)O` [Example T401, (R)-4-(3-chloro-4-(9-(3-cyanobenzyl)-6-(1-methylcyclopropoxy)-9H-purin-8-yl)phenoxy)-2-methylbutanoic acid], the IC50 is 398 nM in the assay with DLD-1 BRCA2−/− cells (setting [3]) and > 10000 nM in the assay with DLD-1 cells (setting [4]).

With `CC(=O)N1CCN(CCCOc2ccc(-c3nc4c(OC5(C)CC5)ncnc4n3Cc3ccccc3)c(Cl)c2)CC1` [Example D22, 1-(4-(3-(4-(9-benzyl-6-(1-methylcyclopropoxy)-9H-purin-8-yl)-3-chlorophenoxy)propyl)piperazin-1-yl)ethan-1-one], the IC50 in the assay with DLD-1 BRCA2−/− cells (setting [5]) is 126 nM; in the assay with DLD-1 cells (setting [6]) it was > 10000 nM.

On to `CC1(Oc2ncnc3c2nc(-c2ccc(OCCN4CCNCC4)cc2Cl)n3Cc2ncccc2C#N)CC1` [Example K11, 2-((8-(2-chloro-4-(2-(piperazin-1-yl)ethoxy)phenyl)-6-(1-methylcyclopropoxy)-9H-purin-9-yl)methyl)nicotinonitrile], for which the IC50 was 2000 nM in the assay with DLD-1 BRCA2−/− cells (setting [5]) and > 10000 nM in the assay with DLD-1 cells (setting [6]).

Consider `CC1(Oc2cccc3c2nc(-c2ccc(OCCN4CCNCC4)cc2Cl)n3Cc2ccccc2)CCC1` [Example P2, 1-benzyl-2-(2-chloro-4-(2-(piperazin-1-yl)ethoxy)phenyl)-4-(1-methylcyclobutoxy)-1H-benzo[d]imidazole], for which the IC50 with DLD-1 BRCA2−/− cells (setting [5]) was 794 nM; in the assay on DLD-1 cells (setting [6]) it was 2510 nM.

Consider `CC1(Oc2ncnc3c2nc(-c2ccc(OCCN4CCNCC4)cc2Cl)n3Cc2cc(Cl)c(F)cn2)CC1` [Example T346, 8-(2-chloro-4-(2-(piperazin-1-yl)ethoxy)phenyl)-9-((4-chloro-5-fluoropyridin-2-yl)methyl)-6-(1-methylcyclopropoxy)-9H-purine], for which the IC50 in the assay on DLD-1 BRCA2−/− cells (setting [7]) is 1580 nM; in the assay with DLD-1 cells (setting [8]), > 10000 nM.

For the compound `CNCCOc1ccc(-c2nc3c(OC4(C)CC4)ncnc3n2Cc2cc(Cl)ccn2)c(Cl)c1` [Example T67, 2-(3-chloro-4-(9-((4-chloropyridin-2-yl)methyl)-6-(1-methylcyclopropoxy)-9H-purin-8-yl)phenoxy)-N-methylethan-1-amine], the IC50 in the assay on DLD-1 BRCA2−/− cells (DLD-1, DLD-1 BRCA2 −/− cells, mean, read-out: POLQ PD Prolif Lumin BRCA2 −/− mean pIC50 (converted)) is 126 nM; in the assay with DLD-1 cells (DLD-1, DLD1 BRCA2 wt cells, mean, read-out: POLQ PD Prolif Lumin DLD1 mean PIC50 (converted)), > 10000 nM.

For `Cc1ccnc(Cn2c(-c3ccc(CCN4CC[C@@H](O)C4)cc3Cl)nc3c(OC4(C)CC4)ncnc32)c1` [Example T511, (R)-1-(3-chloro-4-(6-(1-methylcyclopropoxy)-9-((4-methylpyridin-2-yl)methyl)-9H-purin-8-yl)phenethyl)pyrrolidin-3-ol], the IC50 was 316 nM in the assay with DLD-1 BRCA2−/− cells (setting [1]) and > 10000 nM in the assay with DLD-1 cells (setting [2]).

Regarding `CC(=O)N1CCN(CCOc2ccc(-c3nc4c(OC5(C)CC5)ncnc4n3Cc3ccccc3)c(Cl)c2)CC1` [Example D5, 1-(4-(2-(4-(9-benzyl-6-(1-methylcyclopropoxy)-9H-purin-8-yl)-3-chlorophenoxy)ethyl)piperazin-1-yl)ethan-1-one], the figures for the IC50 with DLD-1 BRCA2−/− cells (setting [5]) and in the assay with DLD-1 cells (setting [6]) were 63.1 nM and 2510 nM, respectively.

As to `CC1(Oc2ncnc3c2nc(-c2ccc(OCCCCOCC(=O)O)cc2Cl)n3Cc2cccc(Cl)c2)CC1` [Example T445, 2-(4-(3-chloro-4-(9-(3-chlorobenzyl)-6-(1-methylcyclopropoxy)-9H-purin-8-yl)phenoxy)butoxy)acetic acid], the IC50 in the assay with DLD-1 BRCA2−/− cells (setting [3]) is 251 nM; in the assay with DLD-1 cells (setting [4]), > 10000 nM.

Consider `CN(C)[C@@H]1CCN(c2ccc(-c3nc4c(OC5(C)CC5)ncnc4n3Cc3ccccc3)c(Cl)c2)C1` [Example C4, (R)-1-(4-(9-benzyl-6-(1-methylcyclopropoxy)-9H-purin-8-yl)-3-chlorophenyl)-N,N-dimethylpyrrolidin-3-amine], for which the results for the IC50 in the assay with DLD-1 BRCA2−/− cells (setting [5]) and in the assay with DLD-1 cells (setting [6]) were 200 nM and 2510 nM, respectively.

As to `CC1(Oc2ncnc3c2nc(-c2cccc(OCCCCOCC(=O)O)c2Cl)n3Cc2cccc(Cl)c2)CC1` [Example T448, 2-(4-(2-chloro-3-(9-(3-chlorobenzyl)-6-(1-methylcyclopropoxy)-9H-purin-8-yl)phenoxy)butoxy)acetic acid], the IC50 in the assay with DLD-1 BRCA2−/− cells (setting [3]) is 79.4 nM; in the assay on DLD-1 cells (setting [4]) it was > 10000 nM.

As to `CC1(Oc2ncnc3c2nc(-c2cc(Cl)c(OCCN4CCNCC4)cc2Cl)n3Cc2ccccc2)CC1` [Example J4, 9-benzyl-8-(2,5-dichloro-4-(2-(piperazin-1-yl)ethoxy)phenyl)-6-(1-methylcyclopropoxy)-9H-purine], the IC50 was 50.1 nM in the assay on DLD-1 BRCA2−/− cells (setting [5]) and 3980 nM in the assay on DLD-1 cells (setting [6]).

On to `Cc1ccnc(Cn2c(-c3ccc(OC4CCS(=O)(=O)CC4)cc3Cl)nc3c(OC4(C)CC4)ncnc32)c1` [Example T335, 4-(3-chloro-4-(6-(1-methylcyclopropoxy)-9-((4-methylpyridin-2-yl)methyl)-9H-purin-8-yl)phenoxy)tetrahydro-2H-thiopyran 1,1-dioxide], for which the figures for the IC50 with DLD-1 BRCA2−/− cells (setting [7]) and in the assay with DLD-1 cells (setting [8]) were 251 nM and > 10000 nM, respectively.

Turning to `Cc1ccnc(Cn2c(-c3ccc(O[C@H]4CCNC4=O)cc3Cl)nc3c(OC4(C)CC4)ncnc32)c1` [Example T185, (S)-3-(3-chloro-4-(6-(1-methylcyclopropoxy)-9-((4-methylpyridin-2-yl)methyl)-9H-purin-8-yl)phenoxy)pyrrolidin-2-one], the IC50 in the assay with DLD-1 BRCA2−/− cells (setting [1]) was 501 nM; with DLD-1 cells (setting [2]), > 10000 nM.

Consider `CC(=O)N1CC(Oc2cc(C)c(-c3nc4c(OC5(C)CC5)ncnc4n3Cc3ccccc3)cn2)C1` [Example G10, 1-(3-((5-(9-benzyl-6-(1-methylcyclopropoxy)-9H-purin-8-yl)-4-methylpyridin-2-yl)oxy)azetidin-1-yl)ethan-1-one], for which the IC50 in the assay on DLD-1 BRCA2−/− cells (setting [5]) was 631 nM; with DLD-1 cells (setting [6]), > 10000 nM.

Regarding `Cc1ccnc(Cn2c(-c3ccc(CC(=O)N4CCCNCC4)cc3Cl)nc3c(OC4(C)CC4)ncnc32)c1` [Example T589, 2-(3-chloro-4-(6-(1-methylcyclopropoxy)-9-((4-methylpyridin-2-yl)methyl)-9H-purin-8-yl)phenyl)-1-(1,4-diazepan-1-yl)ethan-1-one], the IC50 in the assay with DLD-1 BRCA2−/− cells (DLD-1, first proliferation column, DLD-1 BRCA2-/-, read-out: POLQ PD Prolif Lumin (converted)) is 1580 nM; in the assay with DLD-1 cells (DLD-1, second proliferation column, DLD-1 BRCA2 wt control, read-out: POLQ PD Prolif Lumin (converted)), > 10000 nM.

As to `CC(C)(C)Oc1cccc2c1nc(-c1ccc(OCCC(=O)O)cc1Cl)n2Cc1cccc(Cl)c1` [Example T288, 3-(4-(4-(tert-butoxy)-1-(3-chlorobenzyl)-1H-benzo[d]imidazol-2-yl)-3-chlorophenoxy)propanoic acid], the values for the IC50 in the assay on DLD-1 BRCA2−/− cells (setting [9]) and in the assay with DLD-1 cells (setting [10]) were 2000 nM and > 10000 nM, respectively.

Take `CC1(Oc2ncnc3c2nc(-c2ccc(OCCN4CCC(O)CC4)cc2Cl)n3Cc2ccccc2)CC1` [Example H15, 1-(2-(4-(9-benzyl-6-(1-methylcyclopropoxy)-9H-purin-8-yl)-3-chlorophenoxy)ethyl)piperidin-4-ol]: the IC50 in the assay with DLD-1 BRCA2−/− cells (setting [5]) is 79.4 nM; with DLD-1 cells (setting [6]), 1580 nM.

As for `CC1(Oc2ncnc3c2nc(-c2ccc(OCC(N)=O)cc2Cl)n3Cc2ccccc2)CC1` [Example D27, 2-(4-(9-benzyl-6-(1-methylcyclopropoxy)-9H-purin-8-yl)-3-chlorophenoxy)acetamide], the IC50 is 100 nM in the assay with DLD-1 BRCA2−/− cells (setting [5]) and > 10000 nM in the assay with DLD-1 cells (setting [6]).

For `CC1(Oc2ncnc3c2nc(-c2cccc(OCCCCC(=O)O)c2Cl)n3Cc2cccc(Cl)c2)CC1` [Example T292, 5-(2-chloro-3-(9-(3-chlorobenzyl)-6-(1-methylcyclopropoxy)-9H-purin-8-yl)phenoxy)pentanoic acid], the IC50 in the assay with DLD-1 BRCA2−/− cells (setting [9]) was 31.6 nM; with DLD-1 cells (setting [10]), > 10000 nM.

With `CC1(Oc2ccnc3c2nc(-c2ccc(OCCN4CCNCC4)cc2Cl)n3Cc2cc(Cl)ccn2)CC1` [Example 14, 2-(2-Chloro-4-(2-(piperazin-1-yl)ethoxy)phenyl)-3-((4-chloropyridin-2-yl)methyl)-7-(1-methylcyclopropoxy)-3H-imidazo[4,5-b]pyridine], the IC50 in the assay on DLD-1 BRCA2−/− cells (setting [5]) is 251 nM; in the assay on DLD-1 cells (setting [6]) it was > 10000 nM.

For the compound `CN1CCN(CCOc2cc(F)c(-c3nc4c(OC5(C)CC5)ncnc4n3Cc3ccccc3)c(F)c2)CC1` [Example H1, 9-benzyl-8-(2,6-difluoro-4-(2-(4-methylpiperazin-1-yl)ethoxy)phenyl)-6-(1-methylcyclopropoxy)-9H-purine], the results for the IC50 in the assay with DLD-1 BRCA2−/− cells (setting [5]) and in the assay with DLD-1 cells (setting [6]) were 200 nM and 3980 nM, respectively.

Take `CC1(Oc2ncnc3c2nc(-c2cccc(OCCCCCC(=O)O)c2Cl)n3Cc2cccc(Cl)c2)CC1` [Example T440, 6-(2-chloro-3-(9-(3-chlorobenzyl)-6-(1-methylcyclopropoxy)-9H-purin-8-yl)phenoxy)hexanoic acid]: the IC50 in the assay with DLD-1 BRCA2−/− cells (setting [3]) was 25.1 nM; with DLD-1 cells (setting [4]), > 10000 nM.
